In US20260116921A1, “PEPTIDE INHIBITORS OF INTERLEUKIN-23 RECEPTOR AND THEIR USE TO TREAT INFLAMMATORY DISEASES” (priority 2018, published 2026):
Where two headings read alike, the source gives them in different places.

Legend:
[1] = Stability in simulated gastric fluid (SGF); type: in vitro ADME; settings: pH=2, 37° C., 20 μM peptide; for half-life at 20 μM: pig (pepsin), simulated gastric fluid (SGF) with porcine pepsin, read-out: SGF t½ (converted); for SGF t½: porcine pepsin
Experimental: SGF was prepared by adding 20 mg NaCl, 32 mg porcine pepsin (MP Biochemicals, catalog 02102599), and 70 μl HCl to 10 ml water (final pH=2). Aliquots of SGF (0.5 ml each) were pre-warmed at 37° C. To start the reaction, 1 μl of peptide stock solution (10 mM in DMSO) was added to 0.5 ml SGF and thoroughly mixed such that the final peptide concentration was 20 μM. The reactions were incubated at 37° C. with gentle shaking. At each time point (0, 15, 30, 60 min) 50 μl aliquots were removed and added to 200 ul acetonitrile containing 0.1% formic acid to quench the reaction. Samples are stored at 4° C. until the end of the experiment and centrifuged at 10,000 rpm for 5 minutes. Aliquots of the supernatant were removed, diluted 1:1 into distilled water containing internal standard, and analyzed by LCMS/MS. Percent remaining at each timepoint was calculated based on the peak area response ratio of test to compound to internal standard. Time 0 was set to 100%, and all later timepoints were calculated relative to time 0. Half-lives were calculated by fitting to a first-order exponential decay equation using GraphPad.

IL-23R = biological target: T1, IL-23R (Homo sapiens, UniProt Q5VWK5); assay: DB cells IL23R pSTAT3 cell assay (pStat3 HTRF); type: cell-based
T1 sequence (Q5VWK5 24-629): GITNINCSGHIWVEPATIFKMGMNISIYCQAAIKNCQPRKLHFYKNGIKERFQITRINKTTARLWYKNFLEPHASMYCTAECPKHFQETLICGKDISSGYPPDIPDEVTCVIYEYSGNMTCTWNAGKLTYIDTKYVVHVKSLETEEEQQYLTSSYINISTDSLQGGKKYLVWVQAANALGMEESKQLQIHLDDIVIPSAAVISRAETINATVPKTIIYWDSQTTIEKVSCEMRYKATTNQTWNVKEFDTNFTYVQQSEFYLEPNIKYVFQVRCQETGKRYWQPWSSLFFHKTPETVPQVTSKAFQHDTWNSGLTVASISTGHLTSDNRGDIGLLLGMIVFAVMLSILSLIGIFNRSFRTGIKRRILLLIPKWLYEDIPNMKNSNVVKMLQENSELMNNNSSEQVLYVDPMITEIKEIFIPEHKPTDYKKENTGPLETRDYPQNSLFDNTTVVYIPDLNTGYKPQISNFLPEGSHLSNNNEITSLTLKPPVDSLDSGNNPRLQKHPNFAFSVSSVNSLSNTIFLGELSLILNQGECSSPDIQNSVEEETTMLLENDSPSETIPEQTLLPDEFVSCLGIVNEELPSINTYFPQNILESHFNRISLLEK
Method in brief: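 DB cells (5×10E5/well, RPMI-1640 + 10% FBS) stimulated with 0.5 nM final IL-23 plus serially diluted test peptides for 30 min at 37 °C, 5% CO2. Phospho-STAT3 (Tyr705) in lysates measured by HTRF using a two-plate protocol.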

in vitro [2] = type: in vitro ADME; parameters: half-life: dose or concentration left out as unconfirmed; settings: pH 6.8, 37° C., § matrix is 100 fold dilution of standard SIF concentration; for SIF t½: simulated intestinal fluid, pancreatin; for half-life: simulated intestinal fluid (SIF) with pancreatin, read-out: SIF t½ (converted)
in vitro [3] = settings: human, 20% fecal homogenate (supernatant), anaerobic, pH 6.8
in vitro [4] = settings: cynomolgus monkey, 20% fecal homogenate (supernatant), anaerobic, pH 6.8
in vitro [5] = settings: both, SD, rat, plasma (EDTA)
NK cells = assay: NK cell based assay (IL-23/IL-18-induced IFNγ, Quantikine ELISA); settings: human primary NK cells, IL-23 at EC50 to EC75 + IL-18 10 ng/mL, IFNγ after 20 to 24 hours
Experimental: killer (NK) cells, purified from human peripheral blood of healthy donors by negative selection (Miltenyi Biotech, Cat #130-092-657), were cultured in complete media (RPMI 1640 containing […], L-glutamine and penicillin-streptomycin) in the presence of IL-2 (RnD, Cat #202-IL-010/CF) at 25 ng/mL. After 7 days, cells were centrifuged, and resuspended in complete media at IE6 cells/mL. […] After 20 to 24 hours, IFNγ in the supernatant was quantified using Quantikine ELISA (RnD, Cat #DIF50).

## CC(=O)NCCCC[C@H](NC(=O)[C@](C)(CC(C)C)NC(=O)[C@H](Cc1ccc2ccccc2c1)NC(=O)[C@H](Cc1ccc(OCCN)cc1)NC(=O)[C@H]1NC(=O)[C@H](CCC(N)=O)NC(=O)[C@H](Cc2c[nH]c3cc(Cl)ccc23)NC(=O)[C@H]([C@@H](C)O)NC(=O)[C@H](CC(N)=O)NC(=O)[C@@H](NC(C)=O)C(C)(C)SSC1(C)C)C(=O)N[C@@H](CC(N)=O)C(=O)N[C@@H](CC(N)=O)C(N)=O [compound 2]
[1]
  half-life at 20 μM: 13 h
IL-23R
  IC50: 10 to 100 nM
In vitro [2]
  SIF t½: 24 h

## COc1cccc2[nH]cc(C[C@@H]3NC(=O)[C@H]([C@@H](C)O)NC(=O)[C@H](CC(N)=O)NC(=O)[C@@H](NC(C)=O)C(C)(C)SSC(C)(C)[C@@H](C(=O)N[C@@H](Cc4ccc(OCCN)cc4)C(=O)N[C@@H](Cc4ccc5ccccc5c4)C(=O)N[C@@](C)(CC(C)C)C(=O)N[C@@H](CCCCNC(C)=O)C(=O)N[C@@H](CC(N)=O)C(=O)N[C@@H](CC(N)=O)C(N)=O)NC(=O)[C@H](CCC(N)=O)NC3=O)c12 [compound 4]
In vitro [3]
  half-life at 20 μM: 6 h
[1]
  half-life at 20 μM: 9 h
In vitro [4]
  half-life at 20 μM: 2 h
IL-23R
  IC50: 1 to 10 nM
In vitro [2]
  SIF t½: 24 h

## CC(=O)NCCCC[C@H](NC(=O)[C@](C)(CC(C)C)NC(=O)[C@H](Cc1ccc2ccccc2c1)NC(=O)[C@H](Cc1ccc(OCCN)cc1)NC(=O)[C@H]1NC(=O)[C@H](CCC(N)=O)NC(=O)[C@H](Cc2c[nH]c3ccc(F)cc23)NC(=O)[C@H]([C@@H](C)O)NC(=O)[C@H](CC(N)=O)NC(=O)[C@@H](NC(C)=O)C(C)(C)SSC1(C)C)C(=O)N[C@@H](CC(N)=O)C(=O)N[C@@H](CC(N)=O)C(N)=O [compound 7]
[1]
  half-life at 20 μM: 12 h
IL-23R
  IC50: 10 to 100 nM
In vitro [2]
  SIF t½: 24 h

## CC(=O)NCCCC[C@H](NC(=O)[C@](C)(CC(C)C)NC(=O)[C@H](Cc1ccc2ccccc2c1)NC(=O)[C@H](Cc1ccc(OCCN)cc1)NC(=O)[C@H]1NC(=O)[C@H](CCC(N)=O)NC(=O)[C@H](Cc2c[nH]c3c(F)cccc23)NC(=O)[C@H]([C@@H](C)O)NC(=O)[C@H](CC(N)=O)NC(=O)[C@@H](NC(C)=O)C(C)(C)SSC1(C)C)C(=O)N[C@@H](CC(N)=O)C(=O)N[C@@H](CC(N)=O)C(N)=O [compound 8]
[1]
  half-life at 20 μM: 15 h
IL-23R
  IC50: 10 to 100 nM
In vitro [2]
  SIF t½: 24 h

## CC(=O)NCCCC[C@H](NC(=O)[C@](C)(CC(C)C)NC(=O)[C@H](Cc1c[nH]c2cc(Cl)ccc12)NC(=O)[C@H](Cc1ccc(OCCN)cc1)NC(=O)[C@H]1NC(=O)[C@H](CCC(N)=O)NC(=O)[C@H](Cc2c[nH]c3ccccc23)NC(=O)[C@H]([C@@H](C)O)NC(=O)[C@H](CC(N)=O)NC(=O)[C@@H](NC(C)=O)C(C)(C)SSC1(C)C)C(=O)N[C@@H](CC(N)=O)C(=O)N[C@@H](CC(N)=O)C(N)=O [compound 13]
[1]
  SGF t½: 24 h
IL-23R
  IC50: 1 to 10 nM
In vitro [2]
  half-life: 17 h

## CC(=O)NCCCC[C@H](NC(=O)[C@](C)(CC(C)C)NC(=O)[C@H](Cc1c[nH]c2cc(F)ccc12)NC(=O)[C@H](Cc1ccc(OCCN)cc1)NC(=O)[C@H]1NC(=O)[C@H](CCC(N)=O)NC(=O)[C@H](Cc2c[nH]c3ccccc23)NC(=O)[C@H]([C@@H](C)O)NC(=O)[C@H](CC(N)=O)NC(=O)[C@@H](NC(C)=O)C(C)(C)SSC1(C)C)C(=O)N[C@@H](CC(N)=O)C(=O)N[C@@H](CC(N)=O)C(N)=O [compound 14]
[1]
  SGF t½: 24 h
IL-23R
  IC50: 10 to 100 nM
In vitro [2]
  half-life: 9 h

## CC(=O)NCCCC[C@H](NC(=O)[C@](C)(CCCN)NC(=O)[C@H](Cc1ccc2ccccc2c1)NC(=O)[C@H](Cc1ccc(OCCN)cc1)NC(=O)[C@H]1NC(=O)[C@H](CCC(N)=O)NC(=O)[C@H](Cc2c[nH]c3c(C)cccc23)NC(=O)[C@H]([C@@H](C)O)NC(=O)[C@H](CC(N)=O)NC(=O)[C@@H](NC(C)=O)C(C)(C)SSC1(C)C)C(=O)N[C@@H](CC(N)=O)C(=O)NCCC(N)=O [compound 278]
In vitro [3]
  half-life at 20 μM: > 24 h
In vitro [5]
  half-life at 20 μM: > 24 h
NK cells
  IC50: < 10 nM
In vitro [4]
  half-life at 20 μM: 15 h
IL-23R; Table E3, DB cells, IL-23 0.5 nM, 30 minutes at 37° C., read-out: pStat3 HTRF (IC50)
  IC50: < 1 nM
In vitro [2]
  half-life: 19 h
